What is called IC50 is the concentration at which inhibition is half-maximal.

In this assay the test system is Plasmodium falciparum Dd2 asexual blood stage.
Take `O=C(N[C@H](CCS)C(=O)N[C@H](Cc1ccccc1)C(=O)O)c1cc2ccccc2[nH]1`: the IC50 was above 5 µM.

The compound `CC(C)n1cnc2c(NCc3ccccc3)nc(NCc3ccccc3)nc21` showed an IC50 above 5 µM.

Turning to `Clc1cc2nc(C3CCNCC3)n(Cc3ccc(CNCCc4cnc[nH]4)cc3)c2cc1Cl`, the IC50 is 2.41 µM.

As to `O=C(Nc1ccc(-c2ccccc2)cc1)C1=C(O)C(Cc2ccccc2)OC1=O` (stereo unspecified), the IC50 was above 5 µM.

In turn, `CCCCCOc1ccc(/C=C2\Oc3c(ccc(O)c3O)C2=O)c(O)c1` displayed an IC50 above 5 µM.

`CCNC(=O)Nc1cc2c(-c3ccnc(C)c3)ccc(CNC(=O)OC)c2cn1`: the IC50 was above 5 µM.

`Cc1ccc(C)c(OCCCCCCN2C[C@H](O)[C@@H](O)[C@H](O)[C@H]2CO)c1` yielded an IC50 above 5 µM.

`NCCCc1ccccc1C(=O)Nc1ncc([N+](=O)O)s1` gave an IC50 above 5 µM.

`O=C(Nc1ccccc1C(=O)O)c1cccc(Oc2ccccc2)c1` registered an IC50 above 5 µM.

Turning to `CCn1cc(C(=O)O)c(=O)c2cc(F)c(N3CCNC(C)C3)c(F)c21` (stereo unspecified), the IC50 is above 5 µM.

The compound `O=C(NO)C1(CS(=O)(=O)c2ccc(Oc3ccc(Cl)cc3)cc2)CCOCC1` yielded an IC50 above 5 µM.

For the compound `Cc1[nH]c2ccccc2c1CC(=O)N[C@@H](Cc1ccccc1)C(=O)N(C)c1ccccc1`, the IC50 is above 5 µM.

For the compound `Cc1cc(-c2ccccc2)c(C(=O)C(=O)Nc2ccc(N3CCN(c4ncc(F)cn4)CC3)cc2)n1C`, the IC50 was above 5 µM.

As to `OB1OCc2cc(Cl)ccc21`, the IC50 was above 5 µM.

In turn, `CCNC(=O)Nc1cn2c(-c3ncc(CC)cn3)cc(-c3cccnc3)cc2n1` had an IC50 above 5 µM.

As to `Nc1nc(NC2Cc3ccc(F)cc3C2)nc(N2CCCCC2)n1` (stereo unspecified), the IC50 was above 5 µM.

As to `Cc1nc(N(C)C(=O)Cc2ccc(-c3ccccn3)cc2)sc1S(N)(=O)=O`, the IC50 was above 5 µM.

As for `COc1ccc(C(C)(C)C)cc1NC(=O)C(=O)c1ccc(OCCN2CCOCC2)c2ccccc12`, the IC50 is above 5 µM.

With `CCc1cc(Cc2cnc(N)nc2N)cc2c1N(C)CCC2C` (stereo unspecified), the IC50 is above 5 µM.

`CN(C)CC(=O)Nc1ccc2[nH]c(=O)c3ccccc3c2c1`: the IC50 was above 5 µM.

For `Cc1ncc([N+](=O)[O-])n1CC(C)O` (stereo unspecified), the IC50 was above 5 µM.

For `OC(Cn1cncn1)(Cn1cncn1)c1ccc(F)cc1F`, the IC50 was above 5 µM.

Regarding `c1ccc(Cn2c(-c3ccccn3)nc3ccccc32)cc1`, the IC50 was above 5 µM.

The compound `C=C(C)n1c(=O)n(Cc2ccccc2C)c2ccccc21` displayed an IC50 above 5 µM.

Consider `N#Cc1cc([N+](=O)[O-])ccc1Oc1ccccc1Cl`, for which the IC50 was above 5 µM.

As to `NC1(C(=O)O)CCP(=O)(O)CC1` (stereo unspecified), the IC50 is above 5 µM.

Take `CC(N)C12CC3CC(CC(C3)C1)C2` (stereo unspecified): the IC50 is above 5 µM.

Consider `Cc1ccc(N2CCC(CCOc3ccc(S(C)(=O)=O)cc3)CC2)nn1`, for which the IC50 is above 5 µM.

Take `COc1cc(C(C)(C)CCCC(C)C)cc(OC)c1OC`: the IC50 was above 5 µM.

In turn, `CC(N)C(=O)NC(CCCCN)C(=O)NC(CCCNC(=N)N)C(=O)NC(Cc1c[nH]cn1)C(=O)NC(Cc1c[nH]cn1)C(=O)NCC(=O)NC(Cc1ccc(O)cc1)C(=O)NC(CCCCN)C(=O)NC(CCCNC(=N)N)C(=O)NC(CCCCN)C(=O)NC(Cc1ccccc1)C(=O)NC(Cc1c[nH]cn1)C(N)=O` (stereo unspecified) returned an IC50 above 5 µM.

`COc1ccc2c(c1OC)C(=O)OC2C1c2c(cc3c(c2OC)OCO3)CCN1C` (stereo unspecified) returned an IC50 above 5 µM.

Regarding `Cc1nc2ccc(Cl)cc2c(-c2ccccc2)c1CC(=O)O`, the IC50 was above 5 µM.

Consider `CS(=O)(=O)c1ccc(Oc2ccc(Cl)cc2)cc1`, for which the IC50 is above 5 µM.

For `O=C1NC(=O)C(Br)=C1Br`, the IC50 is above 5 µM.

As for `C/C(=N\NC(=O)C1CC1c1ccccc1)c1ccc(NC(=O)c2ccco2)cc1` (stereo unspecified), the IC50 was above 5 µM.

Regarding `COc1c(F)c(F)cc2c(=O)c(C(=O)O)cn(C3CC3)c12`, the IC50 was above 5 µM.

The values are drawn from the supplement of paper PMC7801607.
